Source: article PMC3898417, “A peptide derived from TIMP-3 inhibits multiple angiogenic growth factor receptors and tumour growth and inflammatory arthritis in mice” (Angiogenesis, 2013)
Bridges are numbered along the chain shown (N, C = ends). Where no end group is shown, it is not given here.

Tests used:
[1] = system: recombinant human VEGFR-2; test: Solid phase binding assay: competition with biotinylated-VEGF165; conditions: plate-coated rhVEGFR-2-Fc; biotinylated-VEGF165 2.4 nM, 1 h room temperature; Fig. 1
Method: Ninety six-well plates were coated with the extracellular domain of recombinant human VEGFR-2 fused to the Fc domain of human IgG1 (rhVEGFR-2, R&D Systems, UK) by overnight incubation followed by blocking in 5 % bovine serum albumin/PBS. […] After washing, the biotinylated-VEGF165 was detected with avidin-horse-radish peroxidase and OPD substrate (Sigma-Aldrich, UK) followed by spectrophotometry.

HuDMEC [2] = test: VEGF165-induced cell proliferation (BrdU); type: cell-based, human; conditions: peptide 1 h then 0.5 nM VEGF165 24 h, up to 1 μM, n = 4
Method: Human dermal microvascular endothelial cells were serum-starved followed by incubating with p700 peptide for 1 h and then 0.5 nM of VEGF165 for 24 h at 37 °C. Cell proliferation was determined using a BrdU cell proliferation assay kit (Merck Chemicals Ltd, Nottingham, UK).

PI3K = test: Immunoblotting of VEGF165-induced PI3K phosphorylation; type: cell-based, human; conditions: 1 μM, HuDMEC, western blot; n = 3
Method: (§1) Transfected HUVEC or HuDMEC pre-treated with 1 μM test peptides for 1 h, were stimulated with 0.5 nM of VEGF165 for 2, 5 or 10 min. Cells were lysed and phosphorylated proteins detected by western blotting using phospho-specific antibodies to either VEGFR-2, Erk1/2 or PI3K (New England BioLabs, UK). Band intensities were quantified using Bio-Rad Quantity One Analysis software and normalized using U, un-stimulated control, as 0 %; and VEGF165, positive control, as 100 % of protein phosphorylation.

[3] = system: primary human synovial cells (SC); test: In vitro synovial cell invasion assay (GFR-Matrigel); type: cell-based; conditions: rheumatoid arthritis synovial cells, peptide 1 h, 100 ng/ml PDGF-BB 22 h; n = 3
Method: Synovial cell invasion was determined using a GFR-Matrigel™ invasion assay kit (BD Biosciences, USA). Serum-starved SC were treated with peptide for 1 h, followed by stimulation with 100 ng/ml PDGF-BB at 37 °C for 22 h. After incubation, non-invading cells on the upper side of the chamber were removed and the invaded cells on the lower side of the membrane were fixed with methanol and stained with Hema Gurr® rapid staining solution (Merck Chemicals, Ltd.). Cells were counted using a light microscope at 160× magnification in 3 random fields per well of 3 separate wells.

EGFR = test: Phospho-receptor tyrosine kinase array; type: cell-based, human; conditions: HuDMEC, 100 ng/ml EGF 5 min, phospho-RTK array, preliminary screen, data not shown
Method: (§2) Serum-deprived HuDMEC were pre-treated with test peptides for 1 h and then stimulated with growth factors (0.5 nM VEGF165, 1.6 nM bFGF, 1 nM PDGF-BB, 1.6 nM hepatocyte growth factor, 100 ng/ml EGF or 100 ng/ml insulin-like growth factor I) for 5 min. Cells were then lysed and phosphorylated proteins detected using (a) a receptor tyrosine kinase array (Human Phospho-Receptor Tyrosine Kinase Array Kit, R&D Systems Ltd.) or (b) sandwich ELISA (Duo-sets, R&D Systems Ltd.) according to the manufacturer’s instructions.

[4] = system: collagen-induced arthritis; test: Collagen-induced-arthritis mouse (CIA) model; type: in vivo, DBA-1 mice; conditions: 2.5 mg/kg i.v. every 2 days
4T1 mammary tumour = test: Syngeneic mammary tumour model (4T1); type: in vivo, BALB/c mice
Method: 10^6 4T1 cells were subcutaneously (s.c.) implanted into the right flank of 5–6 weeks old female BALB/c mice (Charles River Laboratories, Margate, UK) and grown until the tumour size reached 100–350 mm^3. The tumour sizes were measured using callipers as described previously. Once the size of the tumours reached 100–350 mm^3, mice were randomized into control and treatment groups and injected with either vehicle alone (PBS), 0.025, 0.25 or 2.5 mg/kg of p700 peptide in PBS, either directly into the tumour (i.t.) once per week for 2 doses; or intravenously (i.v.) every other day for 5 doses. At the end of the experiment, animals were culled and tumours and normal tissues, including lung and liver, excised and fixed with 10 % neutral buffered formalin for subsequent analysis, which included general histology and quantitative measurement of microvascular density (MVD) and necrosis. For MVD measurement, rabbit-anti-mouse CD31 (AbD Serotech, Kidlington, Oxford, UK) antibody was used and sections were stained according to standard immunohistological staining protocols for formalin-fixed tissue sections. Microvessel density was estimated by measuring the percentage of CD31 positive staining in the tumour sections (15 areas per tumour slide, 7 tumour slides per group) using AnalySIS^^D image analysis software (Olympus, UK). For the necrotic area inside the tumour, tumour slides were stained with H&E. Images were measured at 200× magnification, photographed (15 areas per tumour slide, 7 tumour slides per group) and analysed by AnalySIS^^D image analysis software (Olympus, UK). Normal tissues including lung and liver were stained with H&E to study tumour metastasis. Total number of metastases per mouse was determined as the number of metastatic foci on five sections for each animal (n = 7). Incidence of metastasis was calculated as the percentage of mice with one or more metastatic nodules in the tissues. Metastasis severity was scored as follows: […], minimal (score 1 = ≤ 4 metastatic nodules), medium (score 2 = 5–7 metastatic nodules) or extensive involvement (score 3 = ≥ 8 metastatic nodules). Each nodule contained ≥5 nuclei.

HuDMEC [5] = test: Tube formation assay on Matrigel; type: cell-based, human; conditions: for inhibition of VEGF165-induced HuDMEC tube formation / inhibition of tubule formation in response to VEGF121: 1 μM peptide, n = 4; for inhibition of VEGF165-induced HuDMEC tube formation: 0.5 nM VEGF165, 6 h; for inhibition of bFGF-induced tubule formation: 1.6 nM bFGF
Method: Serum-starved HuDMEC were seeded onto Matrigel™ matrix pre-coated 96 well plates (BD Biosciences, Cowley, Oxford, UK) at a density of 1 × 10^4 cells/well in 100 μl EBM-2 medium. Peptides were then added into each corresponding well and incubated for 1 h at 37 °C, followed by stimulated with growth factors, 0.5 nM VEGF165, 1 nM PDGF-BB or 1.6 nM bFGF, to induce tubule development. The tubules formed were examined 6 h after stimulation under a low power (40×) light microscope. Images were captured and analysed by measuring the average tubule length using ImageJ software (National Institutes of Health, USA).

VEGFR-2 [6] = test: Immunoblotting of VEGF165-induced VEGFR-2 phosphorylation; type: cell-based, human; conditions: 1 μM, HuDMEC, western blot; n = 3
Method: as §1

HuDMEC [7] = test: VEGF165-induced cell migration (Boyden chamber); type: cell-based, human; conditions: 0.5 nM VEGF165, 4.5 h, up to 1 μM, n = 4
Method: The ability of the p700 peptide to inhibit VEGF165-induced EC migration was determined using a multi-well Boyden chamber (Neuro Probe, Gaithersburg, USA). Briefly, serum-starved HuDMEC were treated with p700 for 1 h, washed and plated in the upper chamber in EBM-2 medium containing 1 % FCS on an 8 μm fibronectin pre-coated polycarbonate filter (Neuro Probe, Gaithersburg, USA). The cells were then left to migrate across the filter for 4.5 h at 37 °C with media containing 0.5 nM VEGF165 in the presence and absence of inhibitors in the lower chamber. After the incubation, non-migrating cells on the upper side of the membrane were scraped off and the migrated cells were stained with Hema Gurr® rapid staining kit (Merck Chemicals Ltd, Nottingham, UK). Migrated cells were counted using a light microscope at 160× magnification in three random fields per well of three separate wells.

FGFR-4 = test: Phosphorylation RTK sandwich ELISA; type: cell-based, human; conditions: HuDMEC, peptide 1 h, ligand 5 min, n = 3
Method: as §2

PDGFR-α = test: Phosphorylation RTK sandwich ELISA; type: cell-based, human; conditions: HuDMEC, peptide 1 h, ligand 5 min, n = 3
Method: as §2

HGFR = test: Phosphorylation RTK sandwich ELISA; type: cell-based, human; conditions: HuDMEC, peptide 1 h, 1.6 nM hepatocyte growth factor 5 min
Method: as §2

[8] = system: insulin-like growth factor 1 receptor; test: Phosphorylation RTK sandwich ELISA; type: cell-based, human; conditions: HuDMEC, peptide 1 h, 100 ng/ml insulin-like growth factor I 5 min
Method: as §2

VEGFR-1 [9] = test: Phosphorylation RTK sandwich ELISA; type: cell-based, human; conditions: HuDMEC, peptide 1 h, ligand 5 min, n = 3
Method: as §2

VEGFR-2 [10] = test: Phosphorylation RTK sandwich ELISA; type: cell-based, human; conditions: HuDMEC, peptide 1 h, ligand 5 min, n = 3
Method: as §2

VEGFR-3 = test: Phosphorylation RTK sandwich ELISA; type: cell-based, human; conditions: HuDMEC, peptide 1 h, ligand 5 min, n = 3
Method: as §2

FGFR-1 = test: Phosphorylation RTK sandwich ELISA; type: cell-based, human; conditions: HuDMEC, peptide 1 h, ligand 5 min, n = 3
Method: as §2

FGFR-3 = test: Phosphorylation RTK sandwich ELISA; type: cell-based, human; conditions: HuDMEC, peptide 1 h, ligand 5 min, n = 3
Method: as §2

FGFR-2α = test: Phosphorylation RTK sandwich ELISA; type: cell-based, human; conditions: HuDMEC, peptide 1 h, ligand 5 min, n = 3
Method: as §2

HuDMEC [11] = test: Toxicity to HuDMEC by propidium iodide staining; type: cell-based, human; conditions: data not shown
PDGFR-β = conditions: cited from earlier work
From the text: (§3) TIMP-3 appears to bind VEGFR-2 specifically, with no inhibition of the closely related VEGFR-1, FGFR1 or PDGFR-β receptors.

VEGFR-1 [12] = conditions: cited from earlier work
From the text: as §3

FGFR1 = conditions: cited from earlier work
From the text: as §3

GLKLEVNKYQYLLTGR [p323]
ability to inhibit the binding of VEGF165 to rhVEGFR-2 [1]: not

KIKSCYYLPCFVTSKN (disulfide 5-10 (inferred)) [p700]
maximum inhibition of VEGF165-induced cell proliferation (HuDMEC [2]): 40%
inhibition of VEGF165-induced phosphorylation of PI3K (PI3K): approximately 50%
inhibition of PDGF-BB induced synovial cell invasion [3]: approximately 40%
inhibition of EGFR (EGFR): not inhibited
ability to inhibit the binding of VEGF165 to rhVEGFR-2 [1]: able to inhibit
CIA progression ([4]; 7 doses, vehicle n = 8, p700 n = 10): significantly inhibited
clinical presentation of disease (arthritis score) ([4]; p < 0.001 2-way ANOVA): reduced
hind paw inflammation (hind paw volume) ([4]; plethysmometry, p < 0.05 2-way ANOVA, AUC NS): reduced
increased tumour necrosis (4T1 mammary tumour; H&E sections, treated group vs control): failed to reach significance
reduction in microvascular density (anti-CD31 staining) (4T1 mammary tumour; both treatment groups (i.t. and i.v.) compared to control groups, n = 7 tumours/group): approximately 50%
effect on tumour growth, intravenous dosing (4T1 mammary tumour; i.v. every 2 days, 0.25 mg/kg or above, 4T1 s.c. in BALB/c mice, n = 7): almost totally abolished tumour growth
decreased metastases (4T1 mammary tumour; lung and liver H&E sections, treated group vs control): failed to reach significance
effect on tumour growth, intra-tumour dosing (4T1 mammary tumour; weekly i.t. dose of 0.25 mg/kg, 4T1 s.c. in BALB/c mice, n = 7): almost totally abolished tumour growth
inhibition of VEGF165-induced HuDMEC tube formation (HuDMEC [5]): > 99%
inhibition of tubule formation in response to VEGF121 (HuDMEC [5]): > 97%
inhibition of PDGF-BB-induced tubule formation (HuDMEC [5]; HuDMEC, 1 nM PDGF-BB, 6 h, n = 3, Fig. 3b): inhibited
inhibition of bFGF-induced tubule formation (HuDMEC [5]; HuDMEC, 6 h, n = 3, Fig. 3b): inhibited
effect on tubule formation in the absence of VEGF (HuDMEC [5]; relative to untreated cells, data not shown): no effect
inhibition of VEGF165-induced VEGFR-2 phosphorylation (VEGFR-2 [6]): approximately 50%
maximum inhibition of VEGF165-induced migration (HuDMEC [7]): 67%
inhibition of FGFR-4 phosphorylation (FGFR-4): significant inhibition
inhibition of PDGFR-α phosphorylation (PDGFR-α): significant inhibition
inhibition of HGFR phosphorylation (HGFR): no inhibition
inhibition of insulin-like growth factor 1 receptor phosphorylation [8]: no inhibition
inhibition of VEGFR-1 phosphorylation (VEGFR-1 [9]): significant inhibition
inhibition of VEGFR-2 phosphorylation (VEGFR-2 [10]): significant inhibition
inhibition of VEGFR-3 phosphorylation (VEGFR-3): significant inhibition
inhibition of FGFR-1 phosphorylation (FGFR-1): significant inhibition
inhibition of FGFR-3 phosphorylation (FGFR-3): significant inhibition
inhibition of FGFR-2α phosphorylation (FGFR-2α): significant inhibition

fibrinopeptide A (ADSGEGDFLAEGGGVR; Fibrinopeptide A; UniProt P02671 20-35, looked up) [control peptide, 16 amino acid biologically inert control peptide, purchased from Bachem, reference compound]
maximum inhibition of VEGF165-induced cell proliferation (HuDMEC [2]): no significant effect
inhibition of VEGF165-induced phosphorylation of PI3K (PI3K): no significant effect
inhibition of VEGF165-induced HuDMEC tube formation (HuDMEC [5]): no significant effect
inhibition of tubule formation in response to VEGF121 (HuDMEC [5]): no significant effect
inhibition of VEGF165-induced VEGFR-2 phosphorylation (VEGFR-2 [6]): no significant effect
maximum inhibition of VEGF165-induced migration (HuDMEC [7]): no significant effect
concentration showing some toxicity to HuDMEC (HuDMEC [11]): ≥ 10 µM

B1: full length TIMP-3: recombinant human tissue inhibitor of metalloproteinases-3, His-tagged, from High Five insect cells (protein)
chain: CTCSPSHPQDAFCNSDIVIRAKVVGKKLVKEGPFGTLVYTIKQMKMYRGFTKMPHVQYIHTEASESLCGLKLEVNKYQYLLTGRVYDGKMYTGLCNFVERWDQLTLSQRKGLNYRYHLGCNCKIKSCYYLPCFVTSKNECLWTDMLSNFGYPGYQSKHYACIRQKGGYCSWYRGWAPPDKSIINATDP
modifications: left off: His6, C-terminal, state not stated
ability to inhibit the binding of VEGF165 to rhVEGFR-2 [1]: able to inhibit
inhibition of PDGFR-β (PDGFR-β): no inhibition
inhibition of VEGFR-1 (VEGFR-1 [12]): no inhibition
inhibition of FGFR1 (FGFR1): no inhibition
inhibition of bFGF-induced tubule formation (HuDMEC [5]; HuDMEC, 6 h, n = 3, Fig. 3b): some inhibition
inhibition of VEGF165-induced VEGFR-2 phosphorylation (VEGFR-2 [6]): 45%
